Source: paper PMC9150102 (Journal of Medicinal Chemistry, 2022)

What was measured:
SERCA2a = target: T1, SERCA2a (Cavia porcellus, UniProt A0A286XFU8); experiment: SERCA2a ATPase activity, Ca2+ dependency in cardiac SR microsomes from healthy guinea pigs; type: biochemical, guinea pig
T1 construct: from tissue; host or cells: guinea pig left ventricle, SR-enriched microsomes
Method: SERCA2a ATPase activity was assessed in SR preparations from healthy guinea pig hearts. Ca^2+ dependency of ATPase activity was measured, and kinetic parameters (KdCa and Vmax) were estimated at compound concentrations of 10 and 100 nM.
[…] […] Data are the mean ± SEM. *p < 0.05 (one-way RM ANOVA plus post hoc Tukey’s multiple comparisons or paired t-test).
Measurements were performed in cardiac SR microsomes (guinea pig) and in whole tissue homogenates (rat). Cardiac preparations included SERCA2a and PLN. To test for PLN involvement in the effect of compounds, SERCA1 activity was measured in PLN-free microsomes (from guinea pig skeletal muscle) before and after reconstitution with the synthetic PLN1–32 inhibitory fragment at a ratio of 300:1 for PLN/SERCA. […] Either an increase in Vmax (rat) or a decrease in KdCa (increased Ca^2+ affinity) (guinea pig) stands for enhancement of SERCA function. […]
Left ventricles (LV) were dissected from rat and guinea -pig of healthy and failing preparations and frozen until use. Tissues were homogenized, subjected to centrifugation to obtain SR -enriched microsomes and sarcomeric proteins were extracted, as previously described 4.
In the case of guinea-pig hearts, LV tissues were homogenized in 4 volumes of 10 mM NaHCO3, 1 mM PMSF, 10 μg/ml aprotinin and leupeptin (pH 7) and centrifuged at 12,000g for 15 minutes. Supernatants were filtered and centrifuged at 100,000 g for 30 min. Contractile proteins were extracted by suspending the pellets with 0.6 M KCl, 30 mM histidine, pH 7 and further centrifugation at 100,000 g for 30 min.
Final pellets were reconstituted with 0.3 M sucrose, 30 mM histidine, pH 7, to obtain SR-enriched […]
SERCA2a ATPase activity was measured as the rate of 32P-ATP release at multiple Ca2+ concentrations (100-2000 nM) in the absence and presence of tested compounds, as previously described5. Increasing concentrations of each compound were pre-incubated with 2 μg of cardiac preparations for 5 min at 4° C in 80 μl of a solution containing 100 mM KCl, 5 mM MgCl2, 1 μM A23187, 20 mM Tris, pH 7.5. Then, 20 μl of 5 mM Tris-ATP containing 50 nCi of 32P-ATP (3-10 Ci/mmol, Perkin Elmer) were added. The ATP hydrolysis was continued for 15 min at 37°C and the reaction was stopped by acidification with 100 μl of 20% ice-cold perchloric acid. 32P was separated by centrifugation with activated charcoal (Norit A, Serva) and the radioactivity was measured. SERCA2a-dependent ATPase activity was identified as the portion of total hydrolytic activity inhibited by cyclopiazonic acid (CPA, 10 µM). Technical replicates were used to ensure the reliability of single values. […]

[1] = target: T2, Na^+/K^+ ATPase-alpha1 isoform purified from dog kidneys (Canis lupus familiaris, UniProt P50997); parameters: method as in PMID 36153005; conditions: cited from earlier work
T2 construct: excised from 1–3-year-old male beagle dogs; from tissue; host or cells: dog (beagle) kidney outer medulla, Jørgensen purification

STZ diabetic rats = system: STZ diabetic rats; parameters: method as in PMID 36153005; conditions: cited from earlier work
[2] = cited from earlier work
[3] = Acute toxicity (LD50) in mice; conditions: male, Albino Swiss CD-1, mouse, in vivo, po
Method: Acute toxicity (LD50) was preliminarily evaluated in mice following i.v. and oral drug administration.
Control animals received the vehicle only.
Drug toxicity studies in mice
Acute toxicity was determined in CD1 mice. Separate mice groups were either orally treated, or
intravenously injected, with increasing doses of the tested substance to identify the dose causing 50%
mortality (LD50). Acute mortality was assessed at 30 min after compound administration; survival was

T1 sequence (A0A286XFU8 entry or part of it): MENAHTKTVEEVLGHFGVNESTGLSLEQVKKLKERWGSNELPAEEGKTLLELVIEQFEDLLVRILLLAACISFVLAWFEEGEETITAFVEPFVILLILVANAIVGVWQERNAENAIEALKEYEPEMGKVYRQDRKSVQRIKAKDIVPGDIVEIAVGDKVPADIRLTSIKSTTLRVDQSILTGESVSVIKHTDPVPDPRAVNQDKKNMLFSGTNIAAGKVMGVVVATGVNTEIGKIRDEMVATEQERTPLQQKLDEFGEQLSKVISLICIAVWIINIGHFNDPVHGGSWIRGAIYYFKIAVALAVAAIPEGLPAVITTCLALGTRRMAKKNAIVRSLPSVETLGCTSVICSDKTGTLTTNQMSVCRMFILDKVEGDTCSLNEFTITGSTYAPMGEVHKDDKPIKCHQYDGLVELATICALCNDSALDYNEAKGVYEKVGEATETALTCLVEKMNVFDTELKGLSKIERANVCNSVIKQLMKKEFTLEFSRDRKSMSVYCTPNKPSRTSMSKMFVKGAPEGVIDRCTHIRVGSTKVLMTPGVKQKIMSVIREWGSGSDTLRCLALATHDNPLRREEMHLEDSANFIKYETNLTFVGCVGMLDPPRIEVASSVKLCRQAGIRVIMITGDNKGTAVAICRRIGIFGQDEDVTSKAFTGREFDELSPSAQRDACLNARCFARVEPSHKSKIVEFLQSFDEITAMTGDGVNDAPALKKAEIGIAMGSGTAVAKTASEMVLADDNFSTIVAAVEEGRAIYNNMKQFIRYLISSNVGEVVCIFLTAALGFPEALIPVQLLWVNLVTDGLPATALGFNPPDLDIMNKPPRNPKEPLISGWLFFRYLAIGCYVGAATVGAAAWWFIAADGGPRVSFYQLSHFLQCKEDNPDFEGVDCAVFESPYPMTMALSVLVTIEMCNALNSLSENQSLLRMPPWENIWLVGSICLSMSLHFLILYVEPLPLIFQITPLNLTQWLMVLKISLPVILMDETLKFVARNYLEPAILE

With C[C@]12CC/C(=N\OCC(=O)O)C[C@@H]1[C@H](O)C[C@@H]1[C@@H]2CC[C@]2(C)C(=O)CC[C@@H]12 [PST3093, reference compound] the “SERCA2a KdCa reduced by” value (SERCA2a; 1 nM) was 18%, the “SERCA2a KdCa change” value (SERCA2a; 100 nM, guinea pig microsomal preparations) was −25% and the “SERCA2a KdCa reduced by” value (SERCA2a; 100 nM, guinea pig preparation) was 25%. The “activity against Na+/K+ ATPase” value [1] was “inactive”, the “systolic indexes” value (STZ diabetic rats) was “improved systolic indexes” and the half-life [2] was ~10 h. For the same compound, the LD50 at 24 h [3] was > 200 mg/kg.
